System: 699152-130-R-J1-PDC complex spheroid viability
Assay: Anticancer human tumor 699152-130-R-J1-PDC patient-derived pancreatic carcinoma cell line growth inhibition [POLQ]
Conditions: for IC50: curve of first compound; for viability, T/C: stronger effect = lower value
Outline: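 Three-cell-type spheroids modelling solid tumor plus stroma served as the readout system; POL inhibitors were tested individually and in combination, concentration ranges set by clinical Cmax where known.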

[1] = second compound 0.0316 µM, first compound 0.0316 µM
[2] = second compound 0.0316 µM, first compound 0.1 µM
[3] = second compound 0.0316 µM, first compound 0.316 µM
[4] = second compound 0.0316 µM, first compound 1 µM
[5] = second compound 0.0316 µM, first compound 3.16 µM
[6] = second compound 0.0316 µM, first compound 10 µM
[7] = second compound 0.1 µM, first compound 0.0316 µM
[8] = second compound 0.1 µM, first compound 0.1 µM
[9] = second compound 0.1 µM, first compound 0.316 µM
[10] = second compound 0.1 µM, first compound 1 µM
[11] = second compound 0.1 µM, first compound 3.16 µM
[12] = second compound 0.1 µM, first compound 10 µM
[13] = second compound 0.316 µM, first compound 0.0316 µM
[14] = second compound 0.316 µM, first compound 0.1 µM
[15] = second compound 0.316 µM, first compound 0.316 µM
[16] = second compound 0.316 µM, first compound 1 µM
[17] = second compound 0.316 µM, first compound 3.16 µM
[18] = second compound 0.316 µM, first compound 10 µM
[19] = second compound 1 µM, first compound 0.0316 µM
[20] = second compound 1 µM, first compound 0.1 µM
[21] = second compound 1 µM, first compound 0.316 µM
[22] = second compound 1 µM, first compound 1 µM
[23] = second compound 1 µM, first compound 3.16 µM
[24] = second compound 1 µM, first compound 10 µM
[25] = second compound 3.16 µM, first compound 0.0316 µM
[26] = second compound 3.16 µM, first compound 0.1 µM
[27] = second compound 3.16 µM, first compound 0.316 µM
[28] = second compound 3.16 µM, first compound 1 µM
[29] = second compound 3.16 µM, first compound 3.16 µM
[30] = second compound 3.16 µM, first compound 10 µM
[31] = second compound 10 µM, first compound 0.0316 µM
[32] = second compound 10 µM, first compound 0.1 µM
[33] = second compound 10 µM, first compound 0.316 µM
[34] = second compound 10 µM, first compound 1 µM
[35] = second compound 10 µM, first compound 3.16 µM
[36] = second compound 10 µM, first compound 10 µM
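Also: spheroids exposed to agents for 7 days before viability reading.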
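For viability, T/C in this document: percent of DMSO vehicle control viability so 100% = vehicle and 0% = no viable signal.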

`CC1COCCN1c1cc(C2(O)CC3CCC(C2)O3)c2cnn(-c3ccn[nH]3)c2n1` (stereo not given) + Nc1ccc(C#CCN(C(=O)Cc2ncc(C(F)(F)F)cc2C(F)(F)F)c2ccc(F)cc2)nn1 gave an IC50 (second compound 0.0316 µM) of 1.49 µM, an IC50 (second compound 0.1 µM) of 2.7 µM and an IC50 (second compound 0.316 µM) of 1.5 µM. It also gave an IC50 (second compound 1 µM) of 1.38 µM, an IC50 (second compound 3.16 µM) of 1.52 µM and an IC50 (second compound 10 µM) of 2.21 µM. It also gave a viability, T/C [1] of 85.6%, a viability, T/C [2] of 81.3% and a viability, T/C [3] of 60.7%. The viability, T/C [4] was 56.8%, the viability, T/C [5] was 42.5% and the viability, T/C [6] was 35.1%. The viability, T/C [7] was 86.6%, the viability, T/C [8] was 79.1% and the viability, T/C [9] was 68.1%. It also gave a viability, T/C [10] of 61.3%, a viability, T/C [11] of 48.6% and a viability, T/C [12] of 36.2%. It also gave a viability, T/C [13] of 94.9%, a viability, T/C [14] of 85.7% and a viability, T/C [15] of 66.8%. It also gave a viability, T/C [16] of 53.6%, a viability, T/C [17] of 44.8% and a viability, T/C [18] of 35.9%. For the same compound, the viability, T/C [19] was 104%, the viability, T/C [20] was 83.5% and the viability, T/C [21] was 67.2%. It also gave a viability, T/C [22] of 53.2%, a viability, T/C [23] of 42.5% and a viability, T/C [24] of 30.6%. The viability, T/C [25] was 100%, the viability, T/C [26] was 84.6% and the viability, T/C [27] was 65.5%. For the same compound, the viability, T/C [28] was 51%, the viability, T/C [29] was 48.9% and the viability, T/C [30] was 40.3%. The viability, T/C [31] was 104%, the viability, T/C [32] was 90.9% and the viability, T/C [33] was 65.2%. For the same compound, the viability, T/C [34] was 56.8%, the viability, T/C [35] was 51.5% and the viability, T/C [36] was 37.1%.

For `CCc1cc2c(N3CCc4c(cc(Cn5ccnc5)cc4-c4cn(C)nc4C(F)(F)F)C3=O)cc(C)nc2c(OC)n1` + Nc1ccc(C#CCN(C(=O)Cc2ncc(C(F)(F)F)cc2C(F)(F)F)c2ccc(F)cc2)nn1, the IC50 (second compound 0.0316 µM) was > 10 µM, the IC50 (second compound 0.1 µM) was > 10 µM and the IC50 (second compound 0.316 µM) was > 10 µM. For the same compound, the IC50 (second compound 1 µM) was > 10 µM, the IC50 (second compound 3.16 µM) was > 10 µM and the IC50 (second compound 10 µM) was > 10 µM. For the same compound, the viability, T/C [1] was 85.8%, the viability, T/C [2] was 89.8% and the viability, T/C [3] was 97.3%. The viability, T/C [4] was 101%, the viability, T/C [5] was 99.4% and the viability, T/C [6] was 106%. It also gave a viability, T/C [7] of 87.7%, a viability, T/C [8] of 88.8% and a viability, T/C [9] of 96.9%. The viability, T/C [10] was 93.4%, the viability, T/C [11] was 100% and the viability, T/C [12] was 107%. It also gave a viability, T/C [13] of 89.5%, a viability, T/C [14] of 94.2% and a viability, T/C [15] of 101%. The viability, T/C [16] was 89.7%, the viability, T/C [17] was 97% and the viability, T/C [18] was 101%. The viability, T/C [19] was 86.5%, the viability, T/C [20] was 93.6% and the viability, T/C [21] was 95.6%. For the same compound, the viability, T/C [22] was 95.5%, the viability, T/C [23] was 100% and the viability, T/C [24] was 104%. It also gave a viability, T/C [25] of 105%, a viability, T/C [26] of 95.7% and a viability, T/C [27] of 102%. It also gave a viability, T/C [28] of 106%, a viability, T/C [29] of 107% and a viability, T/C [30] of 106%. For the same compound, the viability, T/C [31] was 99.8%, the viability, T/C [32] was 118% and the viability, T/C [33] was 110%. It also gave a viability, T/C [34] of 107%, a viability, T/C [35] of 117% and a viability, T/C [36] of 115%.

In the case of `CCc1cc2c(N3CCc4c(cc(Cn5ccnc5)cc4-c4cn(C)nc4C(F)(F)F)C3=O)ccnc2c(OC)n1` + Nc1ccc(C#CCN(C(=O)Cc2ncc(C(F)(F)F)cc2C(F)(F)F)c2ccc(F)cc2)nn1, the IC50 (second compound 0.0316 µM) is reported as > 10 µM, the IC50 (second compound 0.1 µM) is reported as > 10 µM and the IC50 (second compound 0.316 µM) is reported as > 10 µM. For the same compound, the IC50 (second compound 1 µM) was > 10 µM, the IC50 (second compound 3.16 µM) was > 10 µM and the IC50 (second compound 10 µM) was > 10 µM. It also gave a viability, T/C [1] of 93.3%, a viability, T/C [2] of 87.5% and a viability, T/C [3] of 91.8%. It also gave a viability, T/C [4] of 89.9%, a viability, T/C [5] of 102% and a viability, T/C [6] of 99.6%. It also gave a viability, T/C [7] of 88.4%, a viability, T/C [8] of 90% and a viability, T/C [9] of 89.4%. It also gave a viability, T/C [10] of 98%, a viability, T/C [11] of 101% and a viability, T/C [12] of 100%. It also gave a viability, T/C [13] of 86.2%, a viability, T/C [14] of 93.5% and a viability, T/C [15] of 93.6%. The viability, T/C [16] was 95.4%, the viability, T/C [17] was 106% and the viability, T/C [18] was 99.1%. For the same compound, the viability, T/C [19] was 92.5%, the viability, T/C [20] was 91.2% and the viability, T/C [21] was 107%. The viability, T/C [22] was 94.7%, the viability, T/C [23] was 106% and the viability, T/C [24] was 98.8%. For the same compound, the viability, T/C [25] was 88%, the viability, T/C [26] was 88.5% and the viability, T/C [27] was 96.4%. For the same compound, the viability, T/C [28] was 102%, the viability, T/C [29] was 107% and the viability, T/C [30] was 104%. For the same compound, the viability, T/C [31] was 101%, the viability, T/C [32] was 102% and the viability, T/C [33] was 111%. It also gave a viability, T/C [34] of 111%, a viability, T/C [35] of 109% and a viability, T/C [36] of 110%.

With `COc1cc2cc(C(=O)CCC(=O)O)sc2cc1OC` + Nc1ccc(C#CCN(C(=O)Cc2ncc(C(F)(F)F)cc2C(F)(F)F)c2ccc(F)cc2)nn1 the IC50 (second compound 0.0316 µM) was > 10 µM, the IC50 (second compound 0.1 µM) was > 10 µM and the IC50 (second compound 0.316 µM) was > 10 µM. For the same compound, the IC50 (second compound 1 µM) was > 10 µM, the IC50 (second compound 3.16 µM) was > 10 µM and the IC50 (second compound 10 µM) was > 10 µM. It also gave a viability, T/C [1] of 88.3%, a viability, T/C [2] of 94% and a viability, T/C [3] of 90.2%. For the same compound, the viability, T/C [4] was 98.3%, the viability, T/C [5] was 102% and the viability, T/C [6] was 88.9%. The viability, T/C [7] was 99%, the viability, T/C [8] was 93.8% and the viability, T/C [9] was 95.5%. The viability, T/C [10] was 110%, the viability, T/C [11] was 107% and the viability, T/C [12] was 106%. For the same compound, the viability, T/C [13] was 104%, the viability, T/C [14] was 97.3% and the viability, T/C [15] was 90.3%. For the same compound, the viability, T/C [16] was 105%, the viability, T/C [17] was 105% and the viability, T/C [18] was 104%. The viability, T/C [19] was 102%, the viability, T/C [20] was 94.2% and the viability, T/C [21] was 133%. It also gave a viability, T/C [22] of 96.9%, a viability, T/C [23] of 110% and a viability, T/C [24] of 97.8%. The viability, T/C [25] was 119%, the viability, T/C [26] was 122% and the viability, T/C [27] was 104%. For the same compound, the viability, T/C [28] was 102%, the viability, T/C [29] was 91.8% and the viability, T/C [30] was 102%. For the same compound, the viability, T/C [31] was 114%, the viability, T/C [32] was 124% and the viability, T/C [33] was 121%. For the same compound, the viability, T/C [34] was 111%, the viability, T/C [35] was 112% and the viability, T/C [36] was 109%.

With `O=C(Nc1ccc(O)c(NS(=O)(=O)c2ccc(F)cc2)c1)c1ccc(-c2ccccc2)cc1` + Nc1ccc(C#CCN(C(=O)Cc2ncc(C(F)(F)F)cc2C(F)(F)F)c2ccc(F)cc2)nn1 the IC50 (second compound 0.0316 µM) was > 10 µM, the IC50 (second compound 0.1 µM) was > 10 µM and the IC50 (second compound 0.316 µM) was > 10 µM. For the same compound, the IC50 (second compound 1 µM) was > 10 µM, the IC50 (second compound 3.16 µM) was > 10 µM and the IC50 (second compound 10 µM) was > 10 µM. For the same compound, the viability, T/C [1] was 101%, the viability, T/C [2] was 95.9% and the viability, T/C [3] was 98.2%. The viability, T/C [4] was 111%, the viability, T/C [5] was 100% and the viability, T/C [6] was 62.8%. It also gave a viability, T/C [7] of 89.5%, a viability, T/C [8] of 102% and a viability, T/C [9] of 95.2%. The viability, T/C [10] was 103%, the viability, T/C [11] was 102% and the viability, T/C [12] was 59.4%. The viability, T/C [13] was 116%, the viability, T/C [14] was 108% and the viability, T/C [15] was 114%. The viability, T/C [16] was 101%, the viability, T/C [17] was 110% and the viability, T/C [18] was 68.8%. The viability, T/C [19] was 108%, the viability, T/C [20] was 103% and the viability, T/C [21] was 104%. The viability, T/C [22] was 102%, the viability, T/C [23] was 102% and the viability, T/C [24] was 64.7%. It also gave a viability, T/C [25] of 104%, a viability, T/C [26] of 103% and a viability, T/C [27] of 103%. The viability, T/C [28] was 107%, the viability, T/C [29] was 112% and the viability, T/C [30] was 67.9%. The viability, T/C [31] was 110%, the viability, T/C [32] was 122% and the viability, T/C [33] was 114%. For the same compound, the viability, T/C [34] was 103%, the viability, T/C [35] was 109% and the viability, T/C [36] was 59.3%.

Source: PubChem BioAssay AID1963835 (Molecular Pharmacology Branch, DTP, NCI, 2024)
